# Source: article PMC8300937, “New azolyl-derivatives as multitargeting agents against breast cancer and fungal infections: synthesis, biological evaluation and docking study” (Journal of Enzyme Inhibition and Medicinal Chemistry, 2021)
# Read-outs that look alike come from different tables or passages of the source.
# Key:
# [1] = target: hCYP19A1; set-up: method as in PMID 26481362; conditions: cocrystallized ligand of hCYP19A1; cited from earlier work
# [2] = target: T1, Recombinant human iNOS (Homo sapiens, UniProt P35228); experiment: iNOS inhibition, L-citrulline assay with fluorimetric (HPLC) detection; format: biochemical; conditions: read-out: iNOS % inhibition
# T1 construct: purchased Enzo Life Sciences, Inc
# Protocol: The injection volume was 5 μL.
# Recombinant human iNOS was purchased from Enzo Life Sciences, Inc. (New York, USA).
# [3] = Chemical stability in aqueous media at 37 °C (HPLC); format: physicochemical
# Protocol: Compounds 2 and 5 contain an ester linkage, therefore their chemical stability was evaluated. Phosphate buffer (pH = 7.4), HCl solution (pH = 2.0), NaOH solution (pH = 9.0) were adopted as media. […] Solutions were kept at 37 °C and monitored for 24 h.
# A 0.01 M hydrochloric acid buffer (pH 2), as a non-enzymatic simulated gastric fluid (SGF), a 0.01 M phosphate buffer (pH 7.4) as non-enzymatic simulated intestinal fluid (SIF), and a 0.1 mM sodium hydroxide solution (pH 10) were used in this study. The reactions were initiated by adding 0.1 ml of compound stock solution (1 mg/mL in DMSO) to 1.9 ml aqueous buffer solution, in screw-capped vials at 37 ± 0.5 °C. Samples (5 µL) were withdrawn at appropriate intervals, i.e. after 5 min, 1 h, 2 h, 3 h, 4 h, 6 h, 8 h, and then after 24 h incubation time and analysed by HPLC.
# [4] = system: MCF-7 breast cancer cell line; experiment: Cell metabolic activity (MTT assay); format: cell-based; conditions: Homo sapiens, MCF7; MCF-7, 24 h exposure; read-out: IC50 cell metabolic activity (MTT)
# Protocol: (§1) Human breast cancer MCF-7 (HTB-22™) cells were purchased from ATCC® and maintained in Dulbecco’s Modified Eagle Medium (DMEM) high glucose supplemented with 10% of foetal bovine serum (FBS) and 1% of penicillin/streptomycin (all from Gibco-Thermofisher Scientific, MD, USA) at 37 °C and 5% CO2.
# Cell metabolic activity of MCF-7 human breast cancer cells was assessed by MTT (3–(4,5-dimethylthiazol-2-yl)-2,5-diphenyltetrazolium bromide) test (Sigma Aldrich, Milan, Italy). Cells were seeded (0.1 × 10^4/well) in a 96-well tissue culture-treated plate (Falcon®, Corning Incorporated, NY, USA) and let them adhere for 24 h. Next, the cell monolayer was incubated in the presence of loading concentrations of compounds 2, 5 and 6 (0–400 µM) diluted in DMSO (final concentration 0.2%) for 24, 48 and 72 h. After the exposure time, cells were incubated with 100 μL/well of MTT (5 mg/mL) 1:10 with fresh growth medium (final concentration 0.5 mg/mL) for 4 h at 37 °C and 5% CO2. Finally, the MTT solution was removed and replaced with 100 µL/well of DMSO. Cells were incubated for an additional 20 min at 37 °C and 5% CO2 and afterward gently swirled for 10 min at room temperature. The optical density was measured at 540 nm by means of a spectrophotometer (Multiskan GO, Thermo Scientific, Monza, Italy). Results were expressed as the percentage of cells in the presence of vehicle (DMSO) set as 100% and each experiment was performed in triplicate (n = 3). Concentration-response curves and IC50 were fitted and calculated with the GraphPad Prism 5.0 (GraphPad Software, San Diego, CA, USA)[27].
# [5] = system: C. albicans clinical isolates; experiment: Antifungal broth microdilution (EUCAST), C. albicans clinical isolates; format: cell-based; conditions: Candida albicans
# Protocol: (§2) The antifungal activity of the most representative compounds was evaluated versus one ATCC 90028 strain and 15 clinical isolates belonging to the most clinically relevant Candida spp. (C. albicans, C. tropicalis, and C. glabrata). All strains were stored at −80 °C in Sabouraud Broth (Oxoid LTD, Basingstoke, Hampshire, England) with 20% of glycerine until their use. The strains were grown on Sabouraud CAF agar (Thermo Fisher Scientific Waltham, MA, USA), and incubated for 24–48 h at 37 °C. […] The in vitro antifungal activity was determined by broth microdilution method with RPMI 1640 (Sigma-Aldrich. ST Louis, MO, USA) as recommended by EUCAST, and the E. Def 7.3, method document (http://www.eucast.org). […] Each plate included the following controls: (i) inoculum suspension (growth control), (ii) drug-free medium, (iii) medium with drug, and (iv) distilled water (used for the inoculum preparation). Fluconazole was used as a reference drug according to the EUCAST guidelines. The plates were incubated for 24 h at 37 °C, and then read with a plate reader at 530 nm. […] Three independent experiments were performed in triplicate.
# [6] = system: C. tropicalis clinical isolates; experiment: Antifungal broth microdilution (EUCAST), C. tropicalis clinical isolates; format: cell-based, Candida tropicalis
# Protocol: as §2
# [7] = system: MCF-7 cell line; experiment: Cytotoxicity test (lactate dehydrogenase release); format: cell-based, human; conditions: MCF-7, 24 h, 10 µM (lowest concentration tested); DMSO control set as 1
# Protocol: as §1
# After 24 h, cell supernatants were collected from the MTT plate, centrifuged at 450 × g for 4 min and stored on ice. To quantify the cytotoxicity of loading concentrations of compounds 2, 5 and 6 (0–400 µM), the CytoTox 96® Non-Radioactive Cytotoxicity Assay (Promega Corporation, WI, USA) was performed. The CytoTox 96® Assay quantitatively measures lactate dehydrogenase (LDH), a stable cytosolic enzyme released upon cell lysis. The absorbance signal resulting from the conversion of a tetrazolium salt (iodonitrotetrazolium violet; INT) into a red formazan product was measured at 490 and 690 nm (background) with a spectrophotometer (Multiskan GO, Thermo Scientific, Monza, Italy). The results were normalised on MTT absorbances and expressed as fold increases on the LDH released by cultures in the presence of vehicle (DMSO) set as 1.
# [8] = system: C. albicans ATCC 90028; experiment: Antifungal broth microdilution (EUCAST), standard strain; format: cell-based; conditions: Candida albicans, ATCC90028; C. albicans ATCC 90028; 24 h, ≥50% growth inhibition; read-out: MIC
# Protocol: as §2
# [9] = target: T2, aromatase (CYP19A) (Homo sapiens, UniProt P11511); experiment: Aromatase inhibition, fluorimetric assay kit (Aromatase-CYP19A Inhibitor Screening kit, BioVision); format: biochemical; conditions: read-out: Aromatase % inhibition
# T2 construct: purchased BioVision
# T2 sequence (P11511 1-503): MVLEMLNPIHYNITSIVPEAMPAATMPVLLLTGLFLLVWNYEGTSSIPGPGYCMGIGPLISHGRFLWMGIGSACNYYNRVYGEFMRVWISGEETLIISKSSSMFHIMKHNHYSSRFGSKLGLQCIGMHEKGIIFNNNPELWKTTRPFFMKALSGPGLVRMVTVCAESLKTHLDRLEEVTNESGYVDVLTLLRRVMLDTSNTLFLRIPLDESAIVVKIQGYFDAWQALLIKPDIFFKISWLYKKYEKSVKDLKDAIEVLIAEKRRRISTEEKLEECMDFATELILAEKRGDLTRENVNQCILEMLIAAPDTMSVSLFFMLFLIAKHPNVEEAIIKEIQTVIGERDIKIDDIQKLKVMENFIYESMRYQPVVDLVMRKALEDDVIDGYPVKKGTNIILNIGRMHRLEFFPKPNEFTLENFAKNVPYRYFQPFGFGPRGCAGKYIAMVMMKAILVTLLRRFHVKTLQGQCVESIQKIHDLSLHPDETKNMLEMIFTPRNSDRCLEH
# Protocol: The aromatase inhibitory activity of the novel compounds was determined using a commercial fluorimetric kit (Aromatase CYP19A Inhibitor Screening kit, BioVision, Milpitas, CA, USA). The assay utilises a fluorogenic aromatase substrate, that is converted into a highly fluorescent metabolite detected in the visible range (Ex/Em = 488/527 nm), ensuring a high signal-to-background ratio with little interference by autofluorescence.
# [10] = system: C. glabrata clinical isolates; experiment: Antifungal broth microdilution (EUCAST), C. glabrata clinical isolates; format: cell-based, Candida glabrata
# Protocol: as §2
# [11] = system: aromatase; conditions: at 1 µM; cited from earlier work
# [12] = target: iNOS; set-up: method as in PMID 26481362; conditions: cocrystallized ligand of iNOS; cited from earlier work
compound,measurement,setting,value
"C[C@]12CCC(=O)C=C1CC[C@@H]1[C@@H]2CC[C@]2(C)C(=O)CC[C@@H]12 [4-androstene-3,17-dione]",Ki,[1],20 nM
"O=C(OC(Cc1ccccc1)Cn1ccnc1)c1ccccc1 (stereo not drawn) [Compound 2, 1-benzyl-2-(1H-imidazol-1-yl)ethyl benzoate]",inhibition at 1 µM,[2],100 ± 2.6%
same,Chemical stability in acidic medium,"[3]; HCl solution pH = 2.0, 37 °C, monitored for 24 h",stable
same,Chemical stability in neutral medium,"[3]; Phosphate buffer pH = 7.4, 37 °C, monitored for 24 h",stable
same,half-life at 0.05 mg/mL,"[3]; aqueous NaOH solution, NaOH solution pH = 9.0, 37 °C, read-out: half-life of hydrolysis in basic medium",48 min
same,IC50,[4],> 200000 nM
same,MIC,[5]; C. albicans 78/5,16 µg/mL
same,MIC,[5]; C. albicans 231/5,16 µg/mL
same,MIC,[5]; C. albicans 308/4,64 µg/mL
same,MIC,[5]; C. albicans 510/5,16 µg/mL
same,MIC,[5]; C. albicans 688/5,32 µg/mL
same,MIC,[5]; C. albicans 712/5,32 µg/mL
same,MIC,[5]; C. albicans 887/5,16 µg/mL
same,MIC,[5]; C. albicans 943/5,16 µg/mL
same,MIC,[5]; C. albicans 1009/40,16 µg/mL
same,MIC,[5]; C. albicans SF1,16 µg/mL
same,MIC,[6]; C. tropicalis 295/5,64 µg/mL
same,MIC,"[6]; Candida tropicalis, C. tropicalis 74/5, read-out: MIC",64 µg/mL
same,"LDH released, fold increase vs control",[7],1.44 folds
same,MIC,[8],16 µg/mL
same,inhibition at 1 µM,[9],77 ± 1.8%
same,melting point,,68 to 69 °C
same,MIC,[10]; C. glabrata 311/5,>64 µg/mL
same,MIC,[10]; C. glabrata 495/5,>64 µg/mL
same,MIC,"[10]; Nakaseomyces glabratus, C. glabrata 365/5, read-out: MIC",> 64 µg/mL
O=C(NCc1ccccc1)OC(Cn1ccnc1)c1ccccc1 (stereo not drawn) [Compound 13a],aromatase % inhibition,[11],81%
CCSC(=N)N [ethylisothiourea],Ki,[12],5 nM
